Measurements reported in patent publication US10800789B2, “Antiviral compounds” (Gilead Pharmasset LLC, priority 2012, dated 2020).
Read-outs that look alike come from different tables or passages of the source.

Tests used:
[1] = tested on: NS5A chimeric genotype 1b Con1 replicon with genotype 4a ED43 strain NS5A gene; assay: Replicon assay, genotype 4a NS5A chimera; type: cell-based, HCV; settings: Hepatitis C virus
[2] = tested on: stable HCV 2a JFH-1 Rluc replicon cells (L31 present in NS5A); assay: Renilla luciferase HCV replicon reporter assay, genotype 2a JFH-1; type: cell-based; settings: Hepatitis C virus
Method in brief: (§1)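 First, 3-fold serial dilutions of compound went onto replicon cells, DMSO serving as no-inhibition control and ITMN-191 at >100×EC50 as positive control. Next came 72 h incubation, lysis and Renilla luciferase measurement. Finally, EC50 was calculated by non-linear regression; replicons covered genotypes 1a H77, 1b Con1, 2a JFH-1 (L31) and J6-NS5A chimera (M31).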

[3] = tested on: NS5A chimeric genotype 2a JFH-1 replicon with genotype 2b MD2b-1 strain NS5A gene (M31 present); assay: Replicon assay, genotype 2b NS5A chimera; type: cell-based, HCV; settings: Hepatitis C virus
Method in brief: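 EC50 was fitted by non-linear regression to Renilla luciferase signal after 72 h of exposure to 3-fold serially diluted compound (10 mM DMSO stocks). Controls were DMSO (none) and ITMN-191 above 100×EC50 (full). Chimeric 2a replicons were used either stable or transiently transfected into Huh-Lunet cells.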

[4] = tested on: NS5A chimeric genotype 1b Con1 replicon with genotype 3a S52 strain NS5A gene; assay: Replicon assay, genotype 3a NS5A chimera; type: cell-based, HCV; settings: Hepatitis C virus
[5] = tested on: NS5A chimeric genotype 2a JFH-1 replicon with genotype 2a J6 strain NS5A gene (M31 present); assay: Replicon assay, genotype 2a J6 NS5A chimera; type: cell-based, HCV; settings: Hepatitis C virus
Method in brief: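 72 h compound exposure (3-fold dilutions from 10 mM DMSO stocks) of replicon cells: stable dicistronic RLuc 1a H77, 1b Con1, 2a JFH-1 (NS5A L31); J6-NS5A chimera in JFH-1 (M31), transient in Huh-Lunet or stable. Renilla luciferase read-out, non-linear regression → EC50. DMSO negative control.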

[6] = tested on: stable HCV 1b RLuc replicon cells (dicistronic genotype 1b Con1 replicon); assay: Renilla luciferase HCV replicon reporter assay, genotype 1b; type: cell-based; settings: Hepatitis C virus, 72 h, stable 1b Con1 RLuc replicon cells, 72 hours; read-out: 1b
Method in brief: as §1

[7] = tested on: stable HCV 1a RLuc replicon cells (dicistronic genotype 1a H77 replicon); assay: Renilla luciferase HCV replicon reporter assay, genotype 1a; type: cell-based; settings: Hepatitis C virus, 72 h, stable 1a H77 RLuc replicon cells
Method in brief: as §1

[8] = read-out: 4a (s) (nM), genotype 4a NS5A chimeric replicon, stable replicon cells (s)
[9] = read-out: 4a (s), (s), activity range
[10] = read-out: 2a JFH (nM), genotype 2a JFH-1 replicon (L31 in NS5A), stable cells
[11] = read-out: 2a JFH, stable 2a JFH-1 Rluc replicon cells, L31 in NS5A, activity range
[12] = 2BS, read-out: 2b (s), stably replicating replicon cells (s), activity range
[13] = read-out: 2b (s) (nM), genotype 2b MD2b-1 NS5A chimeric replicon (M31), stably replicating replicon cells (s)
[14] = read-out: 3a (s) (nM), genotype 3a NS5A chimeric replicon, stable replicon cells (s)
[15] = read-out: 3a (s), (s), activity range
[16] = read-out: 3a (t) (nM), genotype 3a NS5A chimeric replicon, transiently transfected (t)
[17] = read-out: 3a (t), transiently transfected (t) into Huh-Lunet cells, activity range
[18] = read-out: 2a J6 (t) (nM), genotype 2a J6 NS5A chimeric replicon (M31), transiently transfected (t) into Huh-Lunet cells
[19] = read-out: 2a J6 (t), transiently transfected (t) into Huh-Lunet cells, activity range
[20] = read-out: 2b (t) (nM), genotype 2b MD2b-1 NS5A chimeric replicon (M31), transiently transfected (t)
[21] = read-out: 2b (t), transiently transfected (t) into Huh-Lunet cells, activity range

| SMILES | EC50 [1, 8] | EC50 [1, 9] | EC50 [2, 10] | EC50 [2, 11] | EC50 [3, 12] | EC50 [3, 13] | EC50 [4, 14] | EC50 [4, 15] | EC50 [4, 16] | EC50 [4, 17] | EC50 [5, 18] | EC50 [5, 19] | EC50 [6] | EC50 [7] | EC50 ([7]; activity range) | EC50 [3, 20] | EC50 [3, 21] |
| --- | --- | --- | --- | --- | --- | --- | --- | --- | --- | --- | --- | --- | --- | --- | --- | --- | --- |
| COC[C@H]1C[C@@H](c2nc3ccc4cc5c(cc4c3[nH]2)OCc2cc(-c3cnc([C@@H]4CC[C@H](C)N4C(=O)[C@@H](NC(=O)OC)C(C)C)[nH]3)ccc2-5)N(C(=O)[C@@H](NC(=O)OC)C2CCOCC2)C1 [EF, methyl[(1 S)-2-[(2S,4S)-2-(9-{2-[(2S,5S)-1-{(2S)-2-[(methoxycarbonyl)amino]-3-methylbutanoyl}-5-methylpyrrolidin-2-yl]-1H-imidazol-5-yl}-1,11 dihydroisochromeno[4′,3′:6,7]naphtho[1,2-d]imidazol-2-yl)-4-(methoxymethyl)pyrrolidin-1-yl]-2-oxo-1-(tetra hydro-2H-pyran-4-yl)ethyl]carbamate] | 0.02 nM | < 0.1 nM | 0.014 nM | < 0.1 nM | < 0.1 nM | 0.091 nM | 0.12 nM | 0.1 to 0.999 nM | 0.102 nM | 0.1 to 0.999 nM | 0.023 nM | < 0.1 nM | 0.053 nM | 0.039 nM | < 0.1 nM | – | – |
| CC[C@H](C)[C@H](NC(=O)OC)C(=O)N1[C@@H](C)CC[C@H]1c1nc2ccc3cc4c(cc3c2[nH]1)OCc1cc(-c2cnc([C@@H]3CC[C@H](C)N3C(=O)[C@@H](NC(=O)OC)C(C)C)[nH]2)ccc1-4 [GM] | 0.015 nM | < 0.1 nM | 0.016 nM | < 0.1 nM | 0.1 to 0.999 nM | 0.658 nM | 0.048 nM | < 0.1 nM | – | – | 0.222 nM | 0.1 to 0.999 nM | 0.016 nM | 0.012 nM | < 0.1 nM | – | – |
| COC(=O)N[C@H](C(=O)N1[C@@H](C)CC[C@H]1c1nc(C2CC2)c(-c2ccc3c(c2)COc2cc4c(ccc5nc([C@@H]6CC[C@H](C)N6C(=O)[C@@H](NC(=O)OC)[C@@H](C)OC)[nH]c54)cc2-3)[nH]1)[C@@H](C)OC [GC, Methyl [(2S,3R)-1-{(2S,5S)-2-[9-(4-cyclopropyl-2-{(2S,5S)-1-[N-(methoxycarbonyl)-O-methyl-L-threonyl]-5-methylpyrrolidin-2-yl}-1H-imidazol-5-yl)-1,11-dihydroisochromeno[4′,3′:6,7]naphtho[1,2-d]imidazol-2-yl]-5-methylpyrrolidin-1-yl}-3-methoxy-1-oxobutan-2-yl]carbamate] | 0.013 nM | < 0.1 nM | 0.063 nM | < 0.1 nM | 0.1 to 0.999 nM | 0.117 nM | 0.14 nM | 0.1 to 0.999 nM | 0.032 nM | < 0.1 nM | 0.181 nM | 0.1 to 0.999 nM | 0.022 nM | 0.013 nM | < 0.1 nM | – | – |
| COC(=O)N[C@H](C(=O)N1C[C@@H](C)C[C@H]1c1ncc(-c2ccc3c(c2)COc2cc4c(ccc5nc([C@@H]6CC[C@H](C)N6C(=O)[C@@H](NC(=O)OC)[C@@H](C)OC)[nH]c54)cc2-3)[nH]1)[C@@H](C)OC [DZ, Methyl [(2S,3R)-3-methoxy-1-{(2S,5S)-2-[9-(2-{(2S,5S)-1-[N-(methoxycarbonyl)-O-methyl-L-threonyl]-4-methylpyrrolidin-2-yl}-1H-imidazol-5-yl)-1,11-dihydroisochromeno[4′,3′:6,7]naphtho[1,2-d]imidazol-2-yl]-5-methylpyrrolidin-1-yl}-1-oxobutan-2-yl]carbamate] | 0.02 nM | < 0.1 nM | 0.016 nM | < 0.1 nM | 0.1 to 0.999 nM | 0.173 nM | 0.089 nM | < 0.1 nM | – | – | 0.054 nM | < 0.1 nM | 0.035 nM | 0.021 nM | < 0.1 nM | 0.072 nM | < 0.1 nM |
| CC[C@H]1CC[C@@H](c2nc3ccc4cc5c(cc4c3[nH]2)OCc2cc(-c3cnc([C@@H]4CC[C@H](C)N4C(=O)[C@@H](NC(=O)OC)C(C)C)[nH]3)ccc2-5)N1C(=O)[C@@H](NC(=O)OC)C(C)C [IF] | 0.017 nM | < 0.1 nM | 0.026 nM | < 0.1 nM | 0.1 to 0.999 nM | 0.691 nM | 0.35 nM | 0.1 to 0.999 nM | – | – | 0.84 nM | 0.1 to 0.999 nM | 0.021 nM | 0.016 nM | < 0.1 nM | – | – |
| COC[C@H]1C[C@@H](c2ncc(-c3ccc4c(c3)COc3cc5c(ccc6nc([C@@H]7CC[C@H](C)N7C(=O)[C@@H](NC(=O)OC)[C@@H](C)OC)[nH]c65)cc3-4)[nH]2)N(C(=O)[C@@H](NC(=O)OC)[C@@H](C)OC)C1 [FX, Methyl {(2S,3R)-3-methoxy-1-[(2S,5S)-2-(9-{2-[(2S,4S)-1-[N-(methoxycarbonyl)-O-methyl-L-threonyl]-4-(methoxymethyl)pyrrolidin-2-yl]-1H-imidazol-5-yl}-1,11-dihydroisochromeno[4′,3′:6,7]naphtho[1,2-d]imidazol-2-yl)-5-methylpyrrolidin-1-yl]-1-oxobutan-2-yl}carbamate] | 0.031 nM | < 0.1 nM | 0.024 nM | < 0.1 nM | 0.1 to 0.999 nM | 0.288 nM | 0.243 nM | 0.1 to 0.999 nM | – | – | 0.064 nM | < 0.1 nM | 0.06 nM | 0.041 nM | < 0.1 nM | 0.122 nM | 0.1 to 0.999 nM |
| COC(=O)N[C@H](C(=O)N1[C@@H](C)CC[C@H]1c1nc2ccc3cc4c(cc3c2[nH]1)OCc1cc(-c2cnc([C@@H]3CC[C@H](C)N3C(=O)[C@@H](NC(=O)OC)[C@@H](C)OC(F)F)[nH]2)ccc1-4)[C@@H](C)OC [GN] | 0.016 nM | < 0.1 nM | 0.017 nM | < 0.1 nM | 0.1 to 0.999 nM | 0.247 nM | 0.072 nM | < 0.1 nM | – | – | 0.033 nM | < 0.1 nM | 0.023 nM | 0.013 nM | < 0.1 nM | – | – |
| CC[C@H](C)[C@H](NC(=O)OC)C(=O)N1[C@@H](C)CC[C@H]1c1ncc(-c2ccc3c(c2)COc2cc4c(ccc5nc([C@@H]6CC[C@H](C)N6C(=O)[C@@H](NC(=O)OC)C(C)C)[nH]c54)cc2-3)[nH]1 [GL] | 0.022 nM | < 0.1 nM | 0.024 nM | < 0.1 nM | 0.1 to 0.999 nM | 0.577 nM | 0.054 nM | < 0.1 nM | – | – | 0.364 nM | 0.1 to 0.999 nM | 0.021 nM | 0.015 nM | < 0.1 nM | – | – |
